A short description of data set [1]: Phase I metabolic stability in rat liver microsomes (with NADPH). The class given is in vitro ADME. The settings on record: pH 7.4, presence of NADPH, mean ± SD, n = 3. On the procedure: (§1) We evaluated the Phase I metabolic stability of compounds 2−7 and 14−19 using rat and human liver microsomes, as previously described.[45]
(§2) Phase I metabolic stability assays were conducted using rat and human liver microsomes as previously described[45],[70] with minor modifications. In brief, the reactions were carried out with 100 mM potassium phosphate buffer, pH 7.4, in the presence of NADPH regenerating system (1.3 mM NADPH, 3.3 mM glucose 6-phosphate, 3.3 mM MgCl2, 0.4 U/mL glucose-6-phosphate dehydrogenase, 50 μM sodium citrate). Negative controls without cofactors were assessed to determine the non-CYP-mediated metabolism. Compound disappearance was monitored over time using a liquid chromatography and tandem mass spectrometry (LC/MS) method. All reactions were performed in triplicate.
(§3) Chromatographic analysis was performed on a Dionex ultra high-performance LC system coupled with Q Exactive Focus orbitrap mass spectrometer (Thermo Fisher Scientific Inc., Waltham MA). Separation was achieved using Agilent Eclipse Plus column (100 × 2.1 mm^2 i.d.; maintained at 35 °C) packed with a 1.8 μm C18 stationary phase. […] The total run time for each analyte was 6.5 min. Pumps were operated at a flow rate of 0.3 mL/min. The mass spectrometer controlled by Xcalibur software 4.0.27.13 (Thermo Scientific) was operated with a HESI ion source in positive ionization mode. Compounds were identified in the full-scan mode (from m/z 50 to 750) by comparing t = 0 samples with t = 30 min and t = 60 min samples.
In general terms: Liver microsomes are vesicles of endoplasmic reticulum, rich in cytochrome P450 enzymes.

The nature of data set [2]: Phase I metabolic stability in human liver microsomes (with NADPH). The class given is in vitro ADME. The settings on record: pH 7.4, presence of NADPH, mean ± SD, n = 3. On the procedure:
as §1, §2, §3

A short description of data set [3]: Non-Phase I metabolic stability in human liver microsomes (absence of NADPH). The class given is in vitro ADME. On the procedure:
We also evaluated the non-Phase I metabolic stability of compounds 2−7 and 14−19 using rat and human liver microsomes. […] This may represent metabolism by hydrolases that can specifically attack the amide. Evidence in support of this hypothesis is shown by the remarkable stability of all triazole analogs (14−19) in the absence of NADPH in Figure 5B,D.
as §2
Chromatographic analysis was performed on a Dionex ultra high-performance LC system coupled with Q Exactive Focus orbitrap mass spectrometer (Thermo Fisher Scientific Inc., Waltham MA). Separation was achieved using Agilent Eclipse Plus column (100 × 2.1 mm^2 i.d.; maintained at 35 °C) packed with a 1.8 μm C18 stationary phase. […] The total run time for each analyte was 6.5 min. […]

The nature of data set [4]: Aqueous solubility (remark). The data set is classed as physicochemical. The settings on record: remark in text.
The target in the next data set is human D2R long isoform (Homo sapiens, UniProt P14416). Also noted: host or cells: CHO-K1; method as in PMID 30883109. The settings on record: antagonist mode; previously reported; cited from earlier work.
Chain of human D2R long isoform (P14416 whole entry, canonical isoform): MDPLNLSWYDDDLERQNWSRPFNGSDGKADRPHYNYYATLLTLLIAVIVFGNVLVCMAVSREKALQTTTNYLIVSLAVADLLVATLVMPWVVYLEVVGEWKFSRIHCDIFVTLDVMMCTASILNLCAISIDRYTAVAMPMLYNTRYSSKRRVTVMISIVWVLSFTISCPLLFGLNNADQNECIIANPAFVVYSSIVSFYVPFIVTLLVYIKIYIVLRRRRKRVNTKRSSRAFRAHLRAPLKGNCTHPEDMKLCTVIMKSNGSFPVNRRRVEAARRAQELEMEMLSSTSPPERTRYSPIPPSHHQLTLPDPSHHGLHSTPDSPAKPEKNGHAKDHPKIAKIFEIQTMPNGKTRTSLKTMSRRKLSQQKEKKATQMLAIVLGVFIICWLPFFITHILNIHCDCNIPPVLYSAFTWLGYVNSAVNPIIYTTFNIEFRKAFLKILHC
Data set [5] addresses T1, human D4R (Homo sapiens, UniProt P21917).
T1 sequence (P21917 1-419): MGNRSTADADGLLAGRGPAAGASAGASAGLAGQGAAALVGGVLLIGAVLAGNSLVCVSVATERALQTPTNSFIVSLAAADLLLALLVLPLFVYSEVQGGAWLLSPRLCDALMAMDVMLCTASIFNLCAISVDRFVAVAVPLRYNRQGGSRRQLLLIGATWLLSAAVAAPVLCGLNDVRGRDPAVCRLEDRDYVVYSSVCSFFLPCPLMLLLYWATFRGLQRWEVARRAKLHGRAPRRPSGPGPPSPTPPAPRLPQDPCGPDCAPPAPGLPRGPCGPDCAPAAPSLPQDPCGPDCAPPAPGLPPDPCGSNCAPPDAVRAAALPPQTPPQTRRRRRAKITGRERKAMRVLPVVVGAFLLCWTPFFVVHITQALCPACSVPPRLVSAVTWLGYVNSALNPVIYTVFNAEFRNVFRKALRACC
Also noted: host or cells: CHO-K1; method as in PMID 30883109. The settings on record: previously reported, cited from earlier work.

Data set [6] has as its target T1, human D4R.

The values below come from article PMC12910498 (ACS pharmacology & translational science, 2026).

Each structure is given as a SMILES string. Read-outs that look alike come from different tables or passages of the source.

In general, half-life refers to the time needed for the level to fall by half in the phase considered. For orientation: IC50 means the concentration that gives 50% inhibition. Read a low IC50 as greater potency. Take `Cc1cccc(NC(=O)CN2CCN(c3cccc4ccccc34)CC2)c1` [Compound 6]: the half-life in data set [1] is 10.5 ± 0.03 min; in data set [2], 16.6 ± 0.17 min. Moreover, in data set [3], the “non-Phase I metabolic stability” value is “relatively little non-Phase I metabolism”. Besides, the aqueous solubility entry in data set [4] is “poor aqueous solubility”. The “D2R Ant (%)” value at human D2R long isoform is recorded as 100 ± 0%. In addition, the “D4R Emax (%)” value at human D4R [5] (agonist mode) is on record as 16.4 ± 3.9%. Also, the “D4R Ant. (%)” value at human D4R [5] (antagonist mode) was 96.7 ± 2.7%; at human D4R [6] (cAMP, antagonist mode, 10 μM forskolin and 10 nM dopamine, normalized to spiperone), 91 ± 7%. Further, on human D4R [6], the IC50 is > 50 µM. In addition, at human D4R [6] (cAMP, agonist mode, at 33 μM (Emax ND)), the “D4R average activity at the highest tested dose” value was “ND (16% at 33 μM)”.
